# Reference: ChEMBL document CHEMBL1129908, “ECD peptides inhibit in vitro fertilization in mice” (Bioorg Med Chem Lett, 1997)
# Where a SMILES comes first, the peptide text is derived from it.
# Species: Mus musculus
# Experiment: Tested for inhibition of sperm-egg fusion in in vitro mouse fertilization assays
# Type: functional
smiles,measurement,value
CC(C)C[C@H](NC(=O)[C@H](CCCN=C(N)N)NC(=O)[C@@H](N)CS)C(=O)N[C@@H](C)C(=O)N[C@@H](CCC(N)=O)C(=O)N[C@@H](CC(=O)O)C(=O)N[C@@H](CCC(=O)O)C(=O)N[C@@H](C)C(=O)N[C@@H](CC(=O)O)C(=O)N[C@H](C(=O)N[C@H](C(=O)N[C@@H](CCC(=O)O)C(=O)N[C@@H](Cc1ccc(O)cc1)C(=O)N[C@@H](CS)C(=O)O)[C@@H](C)O)C(C)C (H-CRLAQDEADVTEYC-OH),IC50,250 µM
